Source: patent US20210189444A1, “METHOD OF PURIFYING CANNABINOIDS FROM YEAST FERMENTATION BROTH” (Demetrix, Inc., priority 2019, published 2021)

Assay: solubility of CBGA and CBG in water as a function of pH (solubility curves, FIG. 4)

## CCCCCc1cc(O)c(C/C=C(\C)CCC=C(C)C)c(O)c1C(=O)O [CBGA, cannabigerolic acid]
pH 11.5 (25% KOH), water:IPM 4:1
  solubility in aqueous phase: soluble
pH <2
  solubility in water: insoluble
